≈ marks a conversion by molar mass, not a printed value. Like-named read-outs stand apart in the source and are kept apart here. Starred links: 1 amine or outer side, 2 acyl side, 3 side chain; linkers in the order of their positions; H or OH if unused. Positions of bridges follow the written chain, without caps; N, C: chain ends. Non-standard residues stand in square brackets, D forms with d. Residues, ends and D or L forms follow the SMILES beside them. *: point of attachment. Decanoyl(3R-OH) = CCCCCCC[C@@H](O)CC(=O)*; azaDab = NCCN(N[*:1])C(=O)[*:2]; dDab = NCC[C@@H](N)C(=O)O; dDap = NC[C@@H](N)C(=O)O; Dab = NCC[C@H](N)C(=O)O
How the values were obtained:
[1] = In vitro nephrotoxicity, LDH release from primary human kidney cells; format: cell-based; conditions: pH 7.4
[2] = system: Neisseria gonorrhoeae; assay: MIC determination, Neisseria gonorrhoeae; format: cell-based; conditions: for MIC N. gonorrhoeae FA19 ATCC BAA-1838: strain FA19 ATCC BAA-1838
Method in brief: (§1)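 Mid-log cultures grown in Mueller Hinton broth at 37° C were tested by 2-fold broth microdilution at 5×10^5 CFU/mL final. Compounds were dissolved in water and tested over a final range of 32 to 0.015 μg/mL.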

[3] = system: P. aeruginosa GN_105, PmxR; conditions: GN 105, PmxR
Method in brief: as §1

[4] = system: K. pneumoniae GN_102 PmxR; conditions: GN 102 PmxR
Method in brief: as §1

[5] = system: K. pneumoniae ATCC 700603, MDR; conditions: ATCC 700603
Method in brief: as §1

[6] = system: E. coli ATCC 25922; conditions: ATCC 25922
Method in brief: as §1

[7] = system: A. baumannii GN_093 PmxR; conditions: GN 093 PmxR
Method in brief: as §1

[8] = system: P. aeruginosa ATCC 27853; conditions: ATCC 27853
Method in brief: as §1

[9] = system: K. pneumoniae ATCC 13883; conditions: ATCC 13883
Method in brief: as §1

[10] = system: K. pneumoniae GN_106, PmxR; conditions: GN 106, PmxR
Method in brief: as §1

[11] = system: K. pneumoniae ATCC BAA-2146, NDM-1 pos; conditions: ATCC BAA-2146
Method in brief: as §1

[12] = system: S. aureus ATCC 25923, MSSA; conditions: ATCC 25923
Method in brief: as §1

[13] = system: A. baumannii ATCC 19606; conditions: ATCC 19606
Method in brief: as §1

[14] = system: P. aeruginosa GN_043, PmxR
Method in brief: as §1

[15] = in vitro; conditions: human
Method in brief: (§2)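 Compound exposure lasted 24 h, following 24 h attachment of 4000 cells/well at 37° C under 5% CO2.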

[16] = In vitro nephrotoxicity, GGT release from primary human kidney cells; format: cell-based; conditions: pH 7.4
Method in brief: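 Primary proximal tubule cells from normal human renal cortex were collagenase-isolated and grown serum-free to 80–90% confluence. GGT release was measured on samples with 2.5 mM γ-glutamyl-p-nitroanilide plus glycylglycine in 50 mM Tris, pH 8.2. p-Nitroanilide formation was read at 410 nm.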

[17] = system: HEK293 cells; assay: in vitro; conditions: human, 24 h
Method in brief: as §2

[18] = system: HepG2 cells; assay: in vitro; conditions: human, 24 h
Method in brief: as §2

[19] = in vitro; conditions: human; remark: listed apart in the source
Method in brief: as §2

Row | SMILES | CC50 [1] [µg/mL] | MIC N. gonorrhoeae FA19 ATCC BAA-1838 [2] [µg/mL] | MIC, K. pneumoniae ATCC 700603, MDR [5] [µg/mL] | MIC, E. coli ATCC 25922 [6] [µg/mL] | MIC, P. aeruginosa ATCC 27853 [8] [µg/mL] | MIC, K. pneumoniae ATCC 13883 [9] [µg/mL] | MIC, K. pneumoniae ATCC BAA-2146, NDM-1 pos [11] [µg/mL] | MIC, A. baumannii ATCC 19606 [13] [µg/mL] | CC50 at 24 h [15] [µM] | CC50 [16] [µg/mL] | MIC P. aeruginosa PA9704, PmxR [3] [µg/mL] | MIC K. pneumoniae Cl Koprana 10065 0661:1 PmxR [4] [µg/mL] | MIC K. pneumoniae ATCC 700603, MDR [5] [µg/mL] | MIC E. coli ATCC 25922 [6] [µg/mL] | MIC A. baumannii Cl Ptyela 10073 4512:2, PmxR [7] [µg/mL] | MIC P. aeruginosa ATCC 27853 [8] [µg/mL] | MIC K. pneumoniae ATCC 13883 [9] [µg/mL] | MIC K. pneumoniae Cl 183-16357-20352, PmxR [10] [µg/mL] | MIC K. pneumoniae ATCC BAA-2146, NDM-1 pos [11] [µg/mL] | MIC S. aureus ATCC 25923, MSSA [12] [µg/mL] | also measured
1 | CCCCCCC[C@@H](O)CC(=O)N[C@H](CN)C(=O)N[C@H]1CCNC(=O)[C@H](CC(C)C)NC(=O)[C@H](CCN)NC(=O)[C@H](CCN)NC(=O)[C@H](CC(C)C)NC(=O)[C@@H](Cc2ccccc2)NC(=O)[C@H](CCN)NC1=O [compound 6442, 3(R)OH-nC9CO-D-Dap-cyc[L-Dab-L-Dab-D-Phe-L-Leu-L-Dab-L-Dab-L-Leu]] ({Decanoyl(3R-OH)}-[dDap][Dab][Dab][dF]L[Dab][Dab]L; lactam 2-C) | > 128 | 1.56 (≈ 1.51 µM) | 4 (≈ 3.88 µM) | 2 (≈ 1.94 µM) | 2 (≈ 1.94 µM) | 4 (≈ 3.88 µM) | 8 (≈ 7.76 µM) | 4 (≈ 3.88 µM) | > 300 | > 128 | – | – | – | – | – | – | – | – | – | – | MIC N. gonorrhoeae F89 ([2]; strain F89): 1.56 µg/mL (≈ 1.51 µM); MIC N. gonorrhoeae FA1090 A25 ATCC 700825 ([2]; strain FA1090 A25 ATCC 700825): 1.3 µg/mL (≈ 1.26 µM); MIC N. gonorrhoeae H041 ([2]; strain H041): 1.56 µg/mL (≈ 1.51 µM); MIC P. aeruginosa GN_105, PmxR [3]: 2 µg/mL (≈ 1.94 µM); MIC K. pneumoniae GN_102 PmxR [4]: 2 µg/mL (≈ 1.94 µM); MIC A. baumannii GN_093 PmxR [7]: 4 µg/mL (≈ 3.88 µM); MIC K. pneumoniae GN_106, PmxR [10]: 4 µg/mL (≈ 3.88 µM); MIC, S. aureus ATCC 25923, MSSA [12]: 16 µg/mL (≈ 15.5 µM); MIC P. aeruginosa GN_043, PmxR ([14]; Table 6, polymyxin-resistant): 2 µg/mL (≈ 1.94 µM)
2 | CCCCCCC[C@@H](O)CC(=O)NN(CCN)C(=O)N[C@H]1CCNC(=O)[C@H](CC(C)C)NC(=O)[C@H](CCN)NC(=O)[C@H](CCN)NC(=O)[C@H](CC(C)C)NC(=O)[C@@H](Cc2ccccc2)NC(=O)[C@H](CCN)NC1=O [compound 8639, 3(R)OH-nC9CO-azaDab-cyc[L-Dab-L-DAB-D-Phe-L-Leu-L-Dab-L-Dab-L-Leu]] ({Decanoyl(3R-OH)}-[azaDab][Dab][Dab][dF]L[Dab][Dab]L; lactam 2-C) | > 128 | 0.78 (≈ 0.746 µM) | – | – | – | – | – | – | – | > 128 | 2 (≈ 1.91 µM) | 2 (≈ 1.91 µM) | 2 (≈ 1.91 µM) | 2 (≈ 1.91 µM) | 8 (≈ 7.65 µM) | 2 (≈ 1.91 µM) | 4 (≈ 3.83 µM) | 2 (≈ 1.91 µM) | 4 (≈ 3.83 µM) | 8 (≈ 7.65 µM) | MIC A. baumannii ATCC 19606 [13]: 4 µg/mL (≈ 3.83 µM); MIC, P. aeruginosa FADDI-PA070, PmxR ([14]; strain name as in Table 11): 2 µg/mL (≈ 1.91 µM)
3 | CCCCCCC[C@@H](O)CC(=O)N[C@H](CCN)C(=O)N[C@H]1CCNC(=O)[C@H](CC(C)C)NC(=O)[C@H](CCN)NC(=O)N(CCN)NC(=O)[C@H](CC(C)C)NC(=O)[C@@H](Cc2ccccc2)NC(=O)[C@H](CCN)NC1=O [compound 8641, 3(R)OH-nC9CO-D-Dab-cyc[L-Dab-L-DAB-D-Phe-L-Leu-azaDab-L-Dab-L-Leu]] ({Decanoyl(3R-OH)}-[dDab][Dab][Dab][dF]L[azaDab][Dab]L; lactam 2-C) | > 128 | – | – | – | – | – | – | – | > 300 | > 128 | 2 (≈ 1.91 µM) | 2 (≈ 1.91 µM) | 4 (≈ 3.83 µM) | 4 (≈ 3.83 µM) | 32 (≈ 30.6 µM) | 2 (≈ 1.91 µM) | 4 (≈ 3.83 µM) | 4 (≈ 3.83 µM) | 8 (≈ 7.65 µM) | 32 (≈ 30.6 µM) | MIC A. baumannii ATCC 19606 [13]: 8 µg/mL (≈ 7.65 µM); MIC, P. aeruginosa FADDI-PA070, PmxR ([14]; strain name as in Table 11): 2 µg/mL (≈ 1.91 µM); CC50 [17]: > 300 µM; CC50 [18]: > 300 µM; CC50 at 24 h [19]: > 300 µM
4 | CCCCCCC[C@@H](O)CC(=O)N[C@H](CCN)C(=O)N[C@H]1CCNC(=O)[C@H](CC(C)C)NC(=O)[C@H](CCN)NC(=O)[C@H](CCCNC(=N)N)NC(=O)[C@H](CC(C)C)NC(=O)[C@@H](Cc2ccccc2)NC(=O)[C@H](CCN)NC1=O [compound 8733, 3(R)OH-nC9CO-D-Dab-cyc[L-Dab-L-DAB-D-Phe-L-Leu-L-Arg-L-Dab-L-Leu]] ({Decanoyl(3R-OH)}-[dDab][Dab][Dab][dF]LR[Dab]L; lactam 2-C) | > 128 | 0.78 (≈ 0.709 µM) | 2 (≈ 1.82 µM) | 2 (≈ 1.82 µM) | 2 (≈ 1.82 µM) | 2 (≈ 1.82 µM) | 4 (≈ 3.63 µM) | 4 (≈ 3.63 µM) | – | > 128 | – | – | – | – | – | – | – | – | – | – | MIC, P. aeruginosa PA9704, PmxR [3]: 2 µg/mL (≈ 1.82 µM); MIC, K. pneumoniae Cl Koprana 10065 0661:1, PmxR [4]: 2 µg/mL (≈ 1.82 µM); MIC, A. baumannii Cl Ptyela 10073 4512:2, PmxR [7]: 8 µg/mL (≈ 7.27 µM); MIC, K. pneumoniae Cl 138-16347-20362, PmxR [10]: 2 µg/mL (≈ 1.82 µM); MIC, S. Aureus ATCC 25923, MSSA [12]: 8 µg/mL (≈ 7.27 µM); MIC, P. aeruginosa FADDI-PA070, PmxR ([14]; Table 5, polymyxin-resistant): 2 µg/mL (≈ 1.82 µM)
